Experimental data published in US20060154895A1, “Method of treating acquired immunedeficiency syndrome” (priority 2004, published 2006).

Assays:
T-cells = assay: Blood T-cell levels after curdlan sulfate alone in HIV infected patients; assay type: in vivo, human; settings: curdlan sulfate administered by itself to HIV infected patients
Source text: The present invention provides a treatment method for HIV infections that is designed to completely eradicate the HIV virus. […] The reappearance of HIV virus in the blood after the interruption of current therapies makes it likely that the HIV virus is capable of being retained in some biological reservoir where current therapies are unable to create an environment that inhibits or destroys the HIV virus. […] The large increase in T-cells is believed to be due to a release or flushing of T-cells from a biological repository or storage site rather than a biological production of new T-cells. This phenomenon has caused the applicants to theorize that the repository or storage site for the T-cells is also a sanctuary for the HIV virus which appears to have an ability to shield itself from the effects of anti-HIV drugs which are circulated in the blood to all of the bodies organs. The invention is directed to the administration of an entry/fusion inhibitor after a HAART drug combination has been administered in an effective amount for a sufficient time to cause the HIV cells to been eradicated from the blood stream. Thereafter, the entry/fusion inhibitor is administered in an effective amount for a sufficient period of time to eradicate the HIV cells.

[1] = Tolerance screening: daily IV dose escalation of curdlan sulfate until APTT is doubled (MTD); assay type: in vivo, human; settings: IV infusion, HIV positive patients
Method: Patients are selected for treatment with the method of the invention based on the fact that they have previously tested positive for HIV and presently have some detectable level of HIV. Initially, the patients are screened for the effect of curdlan sulfate on coagulation times by measuring the time to coagulation using the activated partial thromboplastin time test (APTT) after IV infusion of 50 mg of curdlan sulfate in over a period of 30 minutes. A test dose of […] of curdlan sulfate is given on the first day and each day thereafter, the dose of curdlan sulfate is increased in 50 mg increments until the APTT is doubled. […] When the MTD is determined for each patient, the MTD is repeated daily for 21 days while the particular dosage regimen of the HAART drugs is continued. After the 21 days of curdlan sulfate therapy is completed, the HAART treatment regimen is also suspended and the viral load is determined daily. If there is no measurable viral load after this treatment, the treatment is deemed to be successful. If the viral load returns to measurable levels for three days, the HAART therapy may be reinstituted followed by another sequence of curdlan sulfate therapy.

For curdlan sulfate, the “detectable blood levels of T-cells” value (T-cells) was “large increases in detectable bloods levels of T-cells” and the “bleeding at the MTD” value [1] was “no bleeding at the site of injection or elsewhere is detected”.
